ChEMBL document CHEMBL1127021, “Structure-activity relationship of a series of phenylureas linked to 4-phenylimidazole. Novel potent inhibitors of acyl-CoA:cholesterol O-acyltransferase with antiatherosclerotic activity. 2” (J Med Chem, 1993)

Tests used:
[1] = target: T1, Acyl-CoA:cholesterol acyltransferase (Oryctolagus cuniculus, UniProt Q95214); assay: Inhibition against acyl coenzyme A:cholesterol acyltransferase derived from rabbit aorta homogenate; type: tissue-based
T1 sequence (Q95214 whole entry): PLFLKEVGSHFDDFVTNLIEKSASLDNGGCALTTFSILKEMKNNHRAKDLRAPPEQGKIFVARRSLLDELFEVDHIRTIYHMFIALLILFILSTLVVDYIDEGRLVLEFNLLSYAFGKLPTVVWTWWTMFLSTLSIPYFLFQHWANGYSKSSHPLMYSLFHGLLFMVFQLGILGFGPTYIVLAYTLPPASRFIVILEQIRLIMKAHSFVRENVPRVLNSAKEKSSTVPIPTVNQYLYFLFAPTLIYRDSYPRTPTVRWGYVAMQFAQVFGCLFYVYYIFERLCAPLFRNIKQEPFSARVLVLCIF

Rattus norvegicus [2] = assay: Cholesterol lowering activity in rats after a dose of 1 mg/kg once a day for 2 days; type: functional
O-acyltransferase = O-acyltransferase (Oryctolagus cuniculus, UniProt G1SFD9); assay: Inhibition against acyl coenzyme A:cholesterol acyltransferase derived from rabbit intestine microsomes
Rattus norvegicus [3] = assay: Cholesterol lowering activity in rats after a dose of 4 mg/kg once a day for 2 days; type: functional

Sequence of O-acyltransferase (G1SFD9 1-524): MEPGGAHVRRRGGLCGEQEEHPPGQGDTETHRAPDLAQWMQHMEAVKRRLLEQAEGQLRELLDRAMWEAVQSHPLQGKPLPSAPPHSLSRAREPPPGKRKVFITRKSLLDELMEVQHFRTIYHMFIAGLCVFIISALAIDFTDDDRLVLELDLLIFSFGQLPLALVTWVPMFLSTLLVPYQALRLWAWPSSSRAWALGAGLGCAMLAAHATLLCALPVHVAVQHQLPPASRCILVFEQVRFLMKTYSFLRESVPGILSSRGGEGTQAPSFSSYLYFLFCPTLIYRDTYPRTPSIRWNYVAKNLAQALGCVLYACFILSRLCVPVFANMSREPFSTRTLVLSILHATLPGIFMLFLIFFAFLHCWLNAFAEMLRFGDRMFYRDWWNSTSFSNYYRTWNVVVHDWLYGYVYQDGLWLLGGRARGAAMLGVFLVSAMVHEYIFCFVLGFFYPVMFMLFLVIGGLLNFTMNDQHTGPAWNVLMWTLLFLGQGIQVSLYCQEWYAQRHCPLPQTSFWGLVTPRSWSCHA

IC50 [1] [µM] | IC50 (O-acyltransferase) [µM] | SMILES | Cholesterol reduction (Rattus norvegicus [2]) [%] | Cholesterol reduction (Rattus norvegicus [3]) [%]
0.1 | 0.073 | CCCCCNC(=O)Nc1c(Cl)cccc1OCCCn1cnc(-c2ccccc2)c1C | – | -49
0.048 | 0.2 | Cc1cccc(OCCCn2cnc(-c3ccccc3)c2Cl)c1NC(=O)NCC(C)(C)C | -43 | –
0.044 | 0.08 | CCCCCNC(=O)Nc1c(CC)cccc1OCCCn1cnc(-c2ccccc2)c1C | -51 | -60
0.019 | 0.23 | CCCCCNC(=O)Nc1c(OCCCn2cnc(-c3ccccc3)c2C)cccc1SC | – | –
0.071 | 0.069 | CCCCCNC(=O)Nc1c(F)cccc1OCCCn1cnc(-c2ccccc2)c1C | – | -30
0.031 | 0.18 | CCCCCNC(=O)Nc1c(C)cccc1OCCCn1cnc(-c2ccccc2)c1C(C)C | -30 | -49
> 1 | 0.18 | CCCCCNC(=O)Nc1c(C)cccc1OCCCn1cnc(-c2ccccc2)c1C(N)=O | -20 | –
0.31 | – | CCCCNC(=O)Nc1c(C)cccc1OCCCn1cnc(-c2ccccc2)c1 | -7 | –
0.96 | 0.46 | CCCCCNC(=O)Nc1c(O)cccc1OCCCn1cnc(-c2ccccc2)c1C | – | –
0.079 | 0.17 | CCCCCNC(=O)Nc1c(C)cccc1OCCCn1cnc(-c2ccccc2)c1CC | -28 | -49
0.31 | 0.67 | CCCCCNC(=O)Nc1c(C)cccc1OCCCn1cnc(-c2ccccc2)c1CN(C)C | – | -10
0.29 | 0.48 | CCCCCNC(=O)Nc1c(C)cccc1OCCCn1cnc(-c2ccccc2)c1COC | 18 | -47
0.22 | 0.09 | CCCCCNC(=O)Nc1c(OC)cccc1OCCCn1cnc(-c2ccccc2)c1C | – | -34
> 1 | > 1 | CCCCCNC(=O)Nc1c(C)cccc1OCCCn1cnc(-c2ccccc2)c1C(=O)O | – | –
0.48 | 0.073 | CCCCNC(=O)Nc1c(C)cccc1OCCCn1cnc(-c2ccccc2)c1C | -34 | -45
0.59 | 0.1 | CCCCCNC(=O)Nc1c(N)cccc1OCCCn1cnc(-c2ccccc2)c1C | – | -21
0.072 | 0.22 | CCc1c(-c2ccccc2)ncn1CCCOc1cccc(C)c1NC(=O)NCCC(C)C | -46 | –
0.068 | 0.084 | CCCCCCNC(=O)Nc1c(C)cccc1OCCCn1cnc(-c2ccccc2)c1C | -43 | -46
> 1 | 0.41 | CCCCCNC(=O)Nc1c(C)cccc1OCCCn1cnc(-c2ccccc2)c1CS(C)(=O)=O | – | –
1.9 | > 1 | CCCCCNC(=O)Nc1c(C#N)cccc1OCCCn1cnc(-c2ccccc2)c1C | – | –
0.6 | 0.15 | CCCCCNC(=O)Nc1c(NC)cccc1OCCCn1cnc(-c2ccccc2)c1C | – | -35
0.21 | 0.055 | CCCCNC(=O)Nc1c(C)cccc1OCCCn1cnc(-c2ccccc2)c1Cl | -40 | –
0.088 | 0.14 | Cc1cccc(OCCCn2cnc(-c3ccccc3)c2Cl)c1NC(=O)NCCC(C)C | -59 | –
0.59 | 0.19 | CCCCNC(=O)Nc1c(C)cccc1OCCCn1cnc(-c2ccccc2)c1CO | -21 | –
0.055 | 0.15 | CCCCCNC(=O)Nc1c(C)cccc1OCCCn1cnc(-c2ccccc2)c1C(=O)OCC | – | –
0.084 | – | CCCCCNC(=O)Nc1c(C)cccc1OCCCn1cnc(-c2ccccc2)c1Cl | -41 | –

Further lines, the compound ahead of its results:

SMILES | IC50 [1] [µM] | IC50 (O-acyltransferase) [µM] | Cholesterol reduction (Rattus norvegicus [2]) [%] | Cholesterol reduction (Rattus norvegicus [3]) [%]
CCc1c(-c2ccccc2)ncn1CCCOc1cccc(C)c1NC(=O)NCC(C)(C)C | 0.068 | 0.46 | -55 | –
CCCCCNC(=O)Nc1c(OCCCn2cnc(-c3ccccc3)c2C)cccc1C(C)C | 0.045 | 0.071 | -40 | -59
CCCCCNC(=O)Nc1c(C)cccc1OCCCn1cnc(-c2ccc(F)cc2F)c1 | 0.12 | 0.29 | -23 | -48
CCCCCNC(=O)Nc1c(C)cccc1C[S+]([O-])CCn1cnc(-c2ccccc2)c1C (stereo not drawn) | 0.44 | > 1 | – | –
CCCCCNC(=O)Nc1c(C)cccc1OCCCn1cnc(-c2ccccc2)c1 | 0.31 | 0.25 | -28 | -52
CCCCCNC(=O)Nc1c(NS(=O)(=O)C(F)(F)F)cccc1OCCCn1cnc(-c2ccccc2)c1C | > 10 | > 1 | – | –
CCCCCNC(=O)Nc1c(C)cccc1OCCCn1cnc(-c2cccc([N+](=O)[O-])c2)c1 | 0.29 | 0.13 | -15 | –
CCCCCNC(=O)Nc1c(C)cccc1OCCCn1cnc(-c2cc(OC)c(OC)c(OC)c2)c1 | 0.9 | 0.51 | – | –
CCCCCNC(=O)Nc1ccccc1OCCCn1cnc(-c2ccccc2)c1C | 0.39 | 0.23 | – | 3.9
CCCCCNC(=O)Nc1c(C)cccc1OCCCn1cnc(-c2ccc([N+](=O)[O-])cc2)c1 | 0.56 | 0.07 | -31 | -33
Cc1cccc(OCCCn2cnc(-c3ccccc3)c2CO)c1NC(=O)NCCC(C)C | 0.19 | 0.23 | -52 | –
Cc1cccc(OCCCn2cnc(-c3ccccc3)c2C(C)C)c1NC(=O)NCCC(C)C | 0.019 | 0.28 | -40 | –
Cc1cccc(OCCCn2cnc(-c3ccccc3)c2C)c1NC(=O)NC1CCCCC1 | 0.18 | 0.1 | -42 | -53
CCCCCNC(=O)Nc1c(C)cccc1S(=O)(=O)CCCn1cnc(-c2ccccc2)c1C | 0.73 | 0.6 | – | –
CCCCCNC(=O)Nc1c(C)cccc1C(=O)NCCn1cnc(-c2ccccc2)c1C | 0.28 | 0.097 | – | -25
CCCCCNC(=O)Nc1c(C)cccc1OCCCn1cnc(-c2ccccc2[N+](=O)[O-])c1 | 0.17 | 0.21 | -46 | -66
CCCCCNC(=O)Nc1c(NS(C)(=O)=O)cccc1OCCCn1cnc(-c2ccccc2)c1C | 0.48 | 0.14 | – | 3.6
CCCCCNC(=O)Nc1c(C)cccc1CS(=O)(=O)CCn1cnc(-c2ccccc2)c1C | 0.09 | > 1 | – | –

SMILES | IC50 [1] [µM] | IC50 (O-acyltransferase) [µM] | Cholesterol reduction (Rattus norvegicus [2]) [%] | Cholesterol reduction (Rattus norvegicus [3]) [%]
CCCCCNC(=O)Nc1c(OCCCn2cnc(-c3ccccc3)c2C)cccc1[N+](=O)[O-] | 0.06 | 0.044 | – | -52
CCCCCNC(=O)Nc1c(CN(C)C)cccc1OCCCn1cnc(-c2ccccc2)c1C | 2.6 | 1.3 | – | –
CCCCCNC(=O)Nc1c(C)cccc1[S+]([O-])CCCn1cnc(-c2ccccc2)c1C (stereo not drawn) | > 1 | > 1 | – | –
CCCCCNC(=O)Nc1c(C)cccc1OCCCn1cnc(-c2ccccc2S(C)(=O)=O)c1 | 0.41 | 0.16 | – | -19
CCCCCNC(=O)Nc1c(C)cccc1OCCCn1cnc(-c2c(OC)cc(OC)cc2OC)c1 | > 1 | > 1 | – | –
Cc1cccc(OCCCn2cnc(-c3ccccc3)c2C)c1NC(=O)NCCC(C)C | 0.1 | 0.14 | -59 | -63
CCCCCNC(=O)Nc1c(C)cccc1OCCCn1cnc(-c2cccc(NS(C)(=O)=O)c2)c1 | > 1 | > 1 | – | –
CCCCCNC(=O)Nc1c(OCCCn2cnc(-c3ccccc3)c2C)cccc1S(C)(=O)=O | 0.05 | 0.14 | – | -33
Cc1cccc(OCCCn2cnc(-c3ccccc3)c2)c1NC(=O)NCCC(C)C | 0.37 | 0.23 | -41 | –
CCCCCNC(=O)Nc1c(C)cccc1SCCCn1cnc(-c2ccccc2)c1C | 0.086 | 0.077 | – | -7
CCCCCNC(=O)Nc1c(C)cccc1COCCn1cnc(-c2ccccc2)c1C | 0.1 | 0.88 | – | 2
CCCCCNC(=O)Nc1c(C)cccc1CSCCn1cnc(-c2ccccc2)c1C | 0.07 | 0.57 | – | -11
CCCCCNC(=O)Nc1c(C)cccc1OCC(O)Cn1cnc(-c2ccccc2)c1C (stereo not drawn) | 0.17 | 0.16 | – | -43
CCCCCNC(=O)Nc1c(C)cccc1OCCCn1cnc(-c2ccc(NS(C)(=O)=O)cc2)c1 | > 1 | > 1 | – | –
Cc1cccc(OCCCn2cnc(-c3ccccc3)c2C)c1NC(=O)NCC(C)(C)C | 0.14 | 0.21 | -64 | –
CCCCCNC(=O)Nc1c(C)cccc1OCCCn1cnc(-c2ccccc2NS(C)(=O)=O)c1 | 0.24 | 0.45 | – | -39
Cc1cccc(OCCCn2cnc(-c3ccccc3)c2)c1NC(=O)NCC(C)(C)C | 0.073 | 0.32 | -46 | –
